# According to patent publication US12622953B2, “Vaccines targeting neoepitopes” (Evaxion Biotech A/S, priority 2019, dated 2026):
# Entries after “also recorded” stand apart in the source; their conditions may differ.
# Tested on: neo-peptide specific CD8+ T cells
# Test: MHC I multimer staining of whole blood after i.p. immunization
# Format: in vivo, BALB/c mice
# Details: endpoint day 28, 2.0 μg C22 i.p.
# Experimental: 6-8 weeks old BALB/c JrJ femal mice were acquired from Janvier Labs. The mice were acclimated for one week before initiation of the experiment. The mice had ad libitum access to water and standard chow pellets. The experiment was conducted under license 2017-15-0201-01338 from the Danish Animal Experimentation Inspectorate in accordance with the Danish Animal Experimentation Act, which is stricter and therefore fully compliant with the European directive (2010/63/EU). The mice were ear tagged to allow for identification of individuals.
# To avoid “cage effects” all treatment groups were represented in each cage. Mice in groups 1, 2, 3 and 4 (the cluster immunization groups) were intraperitoneally (i.p.) immunized at day 0, 1, 2, 3, 7, 14 and 21 with 0.4, 2.0, 10.0 and 50.0 μg of C22 admixed with CAF09b, respectively. Corresponding groups (5, 6, 7 and 8) were vaccinated according to a traditional prime-boost strategy on days 0, 14 and 21 with solutions identical to what group 1, 2, 3 and 4 received. Dosing volumes for the mice were 200 μl for all vaccines.
# The C22 peptide was synthesised by GenScript and aliquoted into 0.8 mg portions as a lyophilized product. The peptide was solubilized in DMSO to a concentration of 10 mg/ml by adding 80 μl DMSO to each aliquot. The peptide stock was then diluted 10 times in sterile water (80 μl peptide stock+720 μl sterile water). […]
sequence,measurement,setting,value
QIETQQRKFKASRASILSEMKMLKEKR (listed as Mus musculus) [Peptide C22],MHC:C22 positive CD8+ T cells in blood,cluster primed,low-frequency MHC:C22 positive CD8+ T cells were detected; also recorded: small increase
same,neo-peptide specific CD8+ cells in blood,standard prime-boost schedule,hardly any
